# Experimental data published in the supplement of paper PMC10307832.
# Experiments:
# Assay in all cases: relative viability (nuclei count vs DMSO), 5 days (fraction); higher = more cells survive
# [1] = test system: NCI-H1355
# Method in brief: (§1)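 Lung cancer cell lines were seeded in 1536-well plates and dosed by pin tool the next day, with either a single drug or a fixed anchor-drug dose combined with five library-drug doses (not always all listed) spaced in √10 steps. Five days later, one step fixed the cells and stained their nuclei (final 0.05% Triton X-100, 1% formaldehyde, 1 ug/ml Hoechst), and nuclei were counted on 4× images. Relative viability is the nuclei count in treated wells divided by the count in vehicle wells, and each value is the median of duplicate plates.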
# [2] = test system: NCI-H1993
# Method in brief: as §1
# [3] = test system: NCI-H1944
# Method in brief: as §1
# [4] = test system: SK-LU-1
# Method in brief: as §1
# [5] = test system: LCLC-97TM1
# Method in brief: as §1
# [6] = test system: NCI-H647
# Method in brief: as §1
# [7] = test system: NCI-H441
# Method in brief: as §1
# [8] = test system: EMC-BAC-2
# Method in brief: as §1
# [9] = test system: NCI-H2009
# Method in brief: as §1
# [10] = test system: NCI-H1755
# Method in brief: as §1
# [11] = test system: NCI-H2170
# Method in brief: as §1
# [12] = test system: NCI-H1666
# Method in brief: as §1
# [13] = test system: NCI-H1975
# Method in brief: as §1
# [14] = test system: SW 1573
# Method in brief: as §1
# [15] = test system: NCI-H520
# Method in brief: as §1
# [16] = test system: NCI-H2126
# Method in brief: as §1
# [17] = test system: NCI-H460
# Method in brief: as §1
# [18] = test system: NCI-H727
# Method in brief: as §1
# [19] = test system: NCI-H2347
# Method in brief: as §1
# [20] = test system: ABC-1
# Method in brief: as §1
# [21] = test system: NCI-H1793
# Method in brief: as §1
# [22] = test system: PC-14
# Method in brief: as §1
# [23] = test system: PC-3 [JPC-3]
# Method in brief: as §1
smiles,measurement,setting,value
O=C(O)CCCCC(CCSCc1ccccc1)SCc1ccccc1 (centres undefined) [CPI-613] + O=C(CCCCCCC(=O)Nc1ccccc1)NO [Vorinostat] (partner 1 µM),relative viability,[1]; first compound 5 µM,0.568
same,relative viability,[1]; first compound 15.81 µM,0.547
same,relative viability,[1]; first compound 50 µM,0.537
same,relative viability,[1]; first compound 158.11 µM,0.452
same,relative viability,[1]; first compound 500 µM,0.0985
same,relative viability,[2]; first compound 5 µM,0.569
same,relative viability,[2]; first compound 15.81 µM,0.495
same,relative viability,[2]; first compound 50 µM,0.61
same,relative viability,[2]; first compound 158.11 µM,0.404
same,relative viability,[2]; first compound 500 µM,0.227
same,relative viability,[3]; first compound 5 µM,0.572
same,relative viability,[3]; first compound 15.81 µM,0.574
same,relative viability,[3]; first compound 50 µM,0.496
same,relative viability,[3]; first compound 158.11 µM,0.322
same,relative viability,[3]; first compound 500 µM,0.273
same,relative viability,[4]; first compound 5 µM,0.773
same,relative viability,[4]; first compound 15.81 µM,0.65
same,relative viability,[4]; first compound 50 µM,0.648
same,relative viability,[4]; first compound 158.11 µM,0.206
same,relative viability,[4]; first compound 500 µM,0.11
same,relative viability,[5]; first compound 5 µM,0.479
same,relative viability,[5]; first compound 15.81 µM,0.492
same,relative viability,[5]; first compound 50 µM,0.769
same,relative viability,[5]; first compound 158.11 µM,0.331
same,relative viability,[5]; first compound 500 µM,0.0868
same,relative viability,[6]; first compound 5 µM,0.598
same,relative viability,[6]; first compound 15.81 µM,0.568
same,relative viability,[6]; first compound 50 µM,0.303
same,relative viability,[6]; first compound 158.11 µM,0.0385
same,relative viability,[6]; first compound 500 µM,0.014
same,relative viability,[7]; first compound 5 µM,0.656
same,relative viability,[7]; first compound 15.81 µM,0.789
same,relative viability,[7]; first compound 50 µM,0.717
same,relative viability,[7]; first compound 158.11 µM,0.437
same,relative viability,[7]; first compound 500 µM,0.0026
same,relative viability,[8]; first compound 5 µM,0.499
same,relative viability,[8]; first compound 15.81 µM,0.339
same,relative viability,[8]; first compound 50 µM,0.469
same,relative viability,[8]; first compound 158.11 µM,0.356
same,relative viability,[8]; first compound 500 µM,0.0895
same,relative viability,[9]; first compound 5 µM,0.726
same,relative viability,[9]; first compound 15.81 µM,0.672
same,relative viability,[9]; first compound 50 µM,0.657
same,relative viability,[9]; first compound 158.11 µM,0.152
same,relative viability,[9]; first compound 500 µM,0.0308
same,relative viability,[10]; first compound 5 µM,0.736
same,relative viability,[10]; first compound 15.81 µM,0.707
same,relative viability,[10]; first compound 50 µM,0.675
same,relative viability,[10]; first compound 158.11 µM,0.577
same,relative viability,[10]; first compound 500 µM,0.608
same,relative viability,[11]; first compound 5 µM,0.723
same,relative viability,[11]; first compound 15.81 µM,0.783
same,relative viability,[11]; first compound 50 µM,0.774
same,relative viability,[11]; first compound 158.11 µM,0.541
same,relative viability,[11]; first compound 500 µM,0.31
same,relative viability,[12]; first compound 5 µM,1.07
same,relative viability,[12]; first compound 15.81 µM,1.01
same,relative viability,[12]; first compound 50 µM,1.01
same,relative viability,[12]; first compound 158.11 µM,0.542
same,relative viability,[12]; first compound 500 µM,0.417
same,relative viability,[13]; first compound 5 µM,0.73
same,relative viability,[13]; first compound 15.81 µM,0.735
same,relative viability,[13]; first compound 50 µM,0.692
same,relative viability,[13]; first compound 158.11 µM,0.24
same,relative viability,[13]; first compound 500 µM,0.0367
same,relative viability,[14]; first compound 5 µM,0.749
same,relative viability,[14]; first compound 15.81 µM,0.635
same,relative viability,[14]; first compound 50 µM,0.456
same,relative viability,[14]; first compound 158.11 µM,0.165
same,relative viability,[14]; first compound 500 µM,0.0536
same,relative viability,[15]; first compound 5 µM,0.831
same,relative viability,[15]; first compound 15.81 µM,0.693
same,relative viability,[15]; first compound 50 µM,0.657
same,relative viability,[15]; first compound 158.11 µM,0.325
same,relative viability,[15]; first compound 500 µM,0.11
same,relative viability,[16]; first compound 5 µM,0.743
same,relative viability,[16]; first compound 15.81 µM,0.68
same,relative viability,[16]; first compound 50 µM,0.831
same,relative viability,[16]; first compound 158.11 µM,0.342
same,relative viability,[16]; first compound 500 µM,0.179
same,relative viability,[17]; first compound 5 µM,0.698
same,relative viability,[17]; first compound 15.81 µM,0.553
same,relative viability,[17]; first compound 50 µM,0.718
same,relative viability,[17]; first compound 158.11 µM,0.0356
same,relative viability,[17]; first compound 500 µM,0.008
same,relative viability,[18]; first compound 5 µM,1.1
same,relative viability,[18]; first compound 15.81 µM,1.07
same,relative viability,[18]; first compound 50 µM,1.04
same,relative viability,[18]; first compound 158.11 µM,1.01
same,relative viability,[18]; first compound 500 µM,0.642
same,relative viability,[19]; first compound 5 µM,0.513
same,relative viability,[19]; first compound 15.81 µM,0.494
same,relative viability,[19]; first compound 50 µM,0.596
same,relative viability,[19]; first compound 158.11 µM,0.387
same,relative viability,[19]; first compound 500 µM,0.235
same,relative viability,[20]; first compound 5 µM,1.21
same,relative viability,[20]; first compound 15.81 µM,0.811
same,relative viability,[20]; first compound 50 µM,0.995
same,relative viability,[20]; first compound 158.11 µM,0.701
same,relative viability,[20]; first compound 500 µM,0.318
same,relative viability,[21]; first compound 5 µM,0.781
same,relative viability,[21]; first compound 15.81 µM,0.559
same,relative viability,[21]; first compound 50 µM,0.754
same,relative viability,[21]; first compound 158.11 µM,0.424
same,relative viability,[21]; first compound 500 µM,0.0086
same,relative viability,[22]; first compound 5 µM,0.732
same,relative viability,[22]; first compound 15.81 µM,0.612
same,relative viability,[22]; first compound 50 µM,0.611
same,relative viability,[22]; first compound 158.11 µM,0.0514
same,relative viability,[22]; first compound 500 µM,0.0074
same,relative viability,[23]; first compound 5 µM,0.83
same,relative viability,[23]; first compound 50 µM,0.738
same,relative viability,[23]; first compound 158.11 µM,0.623
same,relative viability,[23]; first compound 500 µM,0.389
